Measurements taken from patent US7902261B2, “Medicinal compositions for preventing or treating viral myocarditis” (Mitsubishi Tanabe Pharma Corporation, priority 1999, dated 2011).
Counter-ions that a name gives are not always drawn.

How the values were obtained:
IL-2 = assay: Intracardiac cytokine assay (ELISA), IL-2; assay type: in vivo, mouse; conditions: heart ventricle at day 5; CsA 40 mg/kg/day, compound 1 10 mg/kg/day orally; mean ± SEM; control 12.79 ± 1.24
Method: (§1) Four-week-old male DBA/2 mice were divided into 3 groups and EMC virus (10 pfu) was intraperitoneally inoculated. After inoculation, distilled water (solvent, n=8) as a control, CsA (40 mg/kg/day, n=5), and compound 1 (10 mg/kg/day, n=7) were orally administered forcibly for 5 consecutive days using a probe. Five days later, the heart was aseptically harvested from the mice, and after weighing the ventricle, homogenized in phosphate-buffered saline (PBS, 1 ml). The homogenate was centrifuged at 4° C., 1,500 g for 15 min and the supernatant (0.1 ml) was inoculated to human amnion FL cell monolayer and cultured at 37° C. for 60 min in 5% CO2. The cells were overlaid with a medium (3 ml) containing 4% fetal calf serum and 1% methylcellulose. After culture under 5% CO2-containing humidified atmosphere at 37° C. for 20 hr, the cells were fixed with acetic acid-methanol (1:2) and stained with 1% crystal violet. The plaques were counted under an inverted microscope (Circulation. 89:846-851, 1994). When the plaques are too many to count, the supernatant is appropriately diluted with Dulbecco's modified Eagle's medium (DMEM) and subjected to a similar assay. […]
(§2) The total protein concentration of each supernatant was measured by bicinchoninic acid (BCA) method, and the ratio of the cytokine concentration to the total protein concentration was calculated (J. Am. Coll. Cardiol. 33:1400-1407, 1999). […]

[1] = tested on: EMC (Encephalomyocarditis) virus; assay: Histopathological observation of the heart (Experimental Example 1); assay type: in vivo, DBA/2 mice; conditions: n=8, day 5, mean ± SEM; for necrosis of myocardial cell (score 0 to 4+): control 1.9 ± 0.2; for cellular infiltration (score 0 to 4+): control 2.0 ± 0.2
Method: (§3) Four-week-old DBA/2 mice were divided into 3 groups and EMC (Encephalomyocarditis) virus (10 pfu) was intraperitoneally inoculated. After inoculation, distilled water (solvent, n=9) as a control, compound 1 (3 mg/kg/day, n=8), and compound 1 (10 mg/kg/day, n=8) were orally administered forcibly for 5 consecutive days using a probe. Five days later, the heart was removed, and, after fixing with formalin, subjected to hematoxylin-eosin staining, based on which heart necrosis and cellular infiltration were scored as follows. • 0; no lesion, • 1+; lesion in 25% or less of the heart, • 2+; lesion in more than 25% and not more than 50% of the heart • 3+; lesion in more than 50% and not more than 75% of the heart • 4+; lesion in more than 75% and not more than 100% of the heart Results

EMC virus [2] = assay: Histopathological observation of the heart (Experimental Example 2); assay type: in vivo, male DBA/2 mice; conditions: CsA 40 mg/kg/day, compound 1 10 mg/kg/day orally for 5 days, day 5, mean ± SEM
Method: as §3
Four-week-old male DBA/2 mice were divided into 3 groups and EMC virus (10 pfu) was intraperitoneally inoculated. […] Five days later, the heart was harvested, and, after fixing with formalin, subjected to hematoxylin-eosin staining, based on which heart necrosis and cellular infiltration were scored according to the criteria shown in Experimental Example 1.
The myocardial cell necrosis and cellular infiltration were independently scored by two observers and averaged. […]

EMC virus [3] = assay: Survival rate, EMC viral myocarditis in mice (Experimental Example 2); assay type: in vivo, DBA/2 male mice; conditions: compound 1 10 mg/kg/day orally for 14 days, n=22 (6 survived); control 0%
Method: The effects on viral myocarditis of compound 1 and an immunosuppressant, cyclosporin A (hereinafter to be referred to as CsA), were compared. The compound 1 was dissolved in sterile distilled water and administered, and CsA was dissolved in olive oil and administered.
Four-week-old DBA/2 male mice were divided into 3 groups, and EMC virus (10 pfu) was intraperitoneally inoculated. After inoculation, distilled water (solvent, control group, n=21), CsA (40 mg/kg/day, CsA group, n=9), and compound 1 (10 mg/kg/day, compound 1 group, n=22) were orally administered forcibly for 14 consecutive days using a probe. The survival rate of each group after 14 days was compared by Kaplan-Meier method.

IL-12 = assay: Intracardiac cytokine assay (ELISA), IL-12; assay type: in vivo, mouse; conditions: heart ventricle at day 5; CsA 40 mg/kg/day, compound 1 10 mg/kg/day orally; mean ± SEM; control 71.76 ± 7.37
Method: as §1, §2

NO = assay: Intracardiac nitric oxide (NO) assay (modified Griess method); assay type: in vivo, mouse; conditions: heart ventricle at day 5; CsA 40 mg/kg/day, compound 1 10 mg/kg/day orally; mean ± SEM; control 2.07 ± 0.20
Method: as §1, with “After culture under 5% CO2-containing humidified atmosphere at 37° C. for 20 hr, the cells were fixed with acetic acid-methanol (1:2) and stained with 1% crystal violet.” left out, “1994).” for “1994). When the plaques are too many to count, the supernatant is appropriately diluted with Dulbecco's modified Eagle's medium (DMEM) and subjected to a similar assay.”
The intracardiac NO content was measured using the same supernatant as used for the cytokine assay according to a modified method of Griess method (J. Am. Coll. Cardiol. 33:1400-1407, 1999; Anal. Biochem. 224:502-508, 1995). […] Optical density at 540 nm was measured using a microplate reader. The nitrite concentration of each sample was calculated based on the standard product. […] The intracardiac NO content was determined by dividing each nitrite concentration by the total protein concentration of each supernatant and expressed in μM/mg total protein. […]

TNF-α = assay: Intracardiac cytokine assay (ELISA), TNF-α; assay type: in vivo, mouse; conditions: heart ventricle at day 5; CsA 40 mg/kg/day, compound 1 10 mg/kg/day orally; mean ± SEM; control 4.11 ± 0.11
Method: as §1, §2

EMC virus [4] = assay: Intracardiac virus titer (plaque assay on human amnion FL cells); assay type: in vivo, male DBA/2 mice; conditions: CsA 40 mg/kg/day, compound 1 10 mg/kg/day orally for 5 days; heart at day 5; mean ± SEM; control 5.18 ± 2.73 × 10^6
Method: Four-week-old male DBA/2 mice were divided into 3 groups and EMC virus (10 pfu) was intraperitoneally inoculated. After inoculation, distilled water (solvent, n=8) as a control, CsA (40 mg/kg/day, n=5), and compound 1 (10 mg/kg/day, n=7) were orally administered forcibly for 5 consecutive days using a probe. Five days later, the heart was aseptically harvested from the mice, and after weighing the ventricle, homogenized in phosphate-buffered saline (PBS, 1 ml). The homogenate was centrifuged at 4° C., 1,500 g for 15 min and the supernatant (0.1 ml) was inoculated to human amnion FL cell monolayer and cultured at 37° C. for 60 min in 5% CO2. The cells were overlaid with a medium (3 ml) containing 4% fetal calf serum and 1% methylcellulose. After culture under 5% CO2-containing humidified atmosphere at 37° C. for 20 hr, the cells were fixed with acetic acid-methanol (1:2) and stained with 1% crystal violet. The plaques were counted under an inverted microscope (Circulation. 89:846-851, 1994). When the plaques are too many to count, the supernatant is appropriately diluted with Dulbecco's modified Eagle's medium (DMEM) and subjected to a similar assay. The test was repeated and the mean was taken. The virus titer was expressed in pfu/g heart. The statistical analysis was conducted by one way ANOVA and Fisher's protected least significant difference test.

IFN-γ = assay: Intracardiac cytokine assay (ELISA), IFN-γ; assay type: in vivo, mouse; conditions: heart ventricle at day 5; CsA 40 mg/kg/day, compound 1 10 mg/kg/day orally; mean ± SEM; control 151.20 ± 15.66
Method: as §1, §2

[5] = tested on: EMC (Encephalomyocarditis) virus; assay: Survival rate, EMC viral myocarditis in mice (Experimental Example 1); assay type: in vivo, DBA/2 mice; conditions: EMC virus 10 pfu i.p., control 0%
Method: Four-week-old DBA/2 mice were divided into 3 groups, and EMC (Encephalomyocarditis) virus (10 pfu) was intraperitoneally inoculated. After inoculation, distilled water (solvent, group A, n=11) as a control, compound 1 (1 mg/kg/day, group B, n=10), and compound 1 (3 mg/kg/day, group C, n=10) were orally administered forcibly for 14 consecutive days using a probe. The survival rate of each group after 14 days was compared by Kaplan-Meier method.

## CCCCCCCCc1ccc(CCC(N)(CO)CO)cc1 [compound 1, 2-Amino-2-(2-(4-octylphenyl)ethyl)propane-1,3-diol hydrochloride]
IL-2
  IL-2: 6.06 ± 0.67 ng/mg total protein
[1]; 3 mg/kg/day orally for 5 days
  necrosis of myocardial cell (score 0 to 4+): 1.7 ± 0.4
  cellular infiltration (score 0 to 4+): 1.6 ± 0.2
[1]; 10 mg/kg/day orally for 5 days
  necrosis of myocardial cell (score 0 to 4+): 1.0 ± 0.2
  cellular infiltration (score 0 to 4+): 1.1 ± 0.2
EMC virus [2]; control 1.89 ± 0.23
  necrosis of myocardial cell (score 0 to 4+): 1.00 ± 0.19
EMC virus [2]; control 2.00 ± 0.19
  cellular infiltration (score 0 to 4+): 1.06 ± 0.19
EMC virus [3]
  survival rate at day 14: 27%
IL-12
  IL-12: 46.00 ± 12.82 pg/mg total protein
NO
  NO content: 1.91 ± 0.34 μM/mg total protein
TNF-α
  TNF-α: 3.72 ± 0.25 ng/mg total protein
EMC virus [4]
  virus titer: 1.23 ± 0.53 × 10^7 (NS) pfu/g heart
IFN-γ
  IFN-γ: 108.86 ± 12.98 pg/mg total protein
[5]; 1 mg/kg/day orally for 14 days (group B, n=10)
  survival rate at day 14: 10%
[5]; 3 mg/kg/day orally for 14 days (group C, n=10), p<0.05
  survival rate at day 14: 30%
